Data on two molecules can be found in patent US20050208197A1, “Refreshment capable of stimulating movement of digestive tract” (priority 2002, published 2005).

Series [1] addresses T1, human muscarinic M3 receptors (Homo sapiens, UniProt P20309).
T1 construct: expressed in transfected cells; host or cells: CHO (Chinese hamster ovary) cells, membrane preparation
Description: Test for binding activity to muscarinic M3 receptors ([3H]4-DAMP displacement). Here is the method: The mixture was then incubated at 22° C. for 60 min. Subsequently, the reaction mixture was filtered through a glass fiber filter (GF/B, PACKARD) while aspirated. Once the reaction came to an end, the mixture was washed several times with ice-chilled buffer. A scintillation cocktail (Microscint O, PACKARD) was then added to the filter, and the residual radioactivity was measured by a liquid scintillation counter (Topcount, PACKARD).

The nature of series [2]: Water solubility of the isolated active substances. The series is classed as physicochemical. The source says:
In another aspect, the present invention provides a method for separating/purifying the active substances α and β. Specifically, the method includes freeze-drying beer, which serves as the starting material, to remove volatile components and collect non-volatile components; subjecting the non-volatile components to a chromatography using synthetic absorbent to remove unadsorbed components and collect adsorbed components in a crude fraction containing concentrated active substances; subjecting the crude fraction to a weakly acidic cation exchange chromatography to remove unadsorved components; eluting the active substances with acidic methanol (methanol/hydrochloric acid); subjecting the eluate to gel filtration chromatography using 0.01N hydrochloric acid to obtain a purified fraction; subjecting the purified fraction to C18 high performance liquid chromatography (ODS-HPLC) for further purification to isolate the two active substances. The active substances so obtained were water-soluble.

The subject of the next series is stomach emptying in mice. In words: Stomach emptying in mice (phenol red test feed). It is filed as in vivo. The following applies: oral, dose-dependent, P<0.05 vs distilled water, FIG. 15. Here is the method: Using a stomach tube, ddY line mice (10 animals in each group) were orally administered each of distilled water, the active substances α and β following an 18-hour fasting period. 60 minutes after administration, each animal was orally administered a test feed (0.2 mL/animal; 1.5% methylcellulose solution containing 0.05% phenol red) using the same technique. After 15 minutes, the animals were sacrificed by cervical dislocation and the stomachs were removed. The stomachs, along with their contents, were then homogenized in 10 mL 0.1N NaOH and the homogenates were allowed to stand for 1 hour at room temperature. To 1 mL of the resulting supernatant, 0.1 mL 20% trichloroacetic acid was added and the supernatant was centrifuged to precipitate proteins. Subsequently, 0.5 ml of the resulting supernatant was collected and 0.5 mL 0.5N NaOH was added to color the solution. The absorbance of the solution at 560 nm was measured to determine the amount of phenol red remaining in the stomach. The rate of stomach emptying was determined by the following equation: Stomach emptying rate (%)=(A−B)/A×100 where ‘A’ is the amount of phenol red in the stomach immediately after the administration of the test feed; and ‘B’ is the amount of phenol red remaining in the stomach 15 minutes after the administration of the test feed. 2. Results

T1 sequence (P20309 whole entry): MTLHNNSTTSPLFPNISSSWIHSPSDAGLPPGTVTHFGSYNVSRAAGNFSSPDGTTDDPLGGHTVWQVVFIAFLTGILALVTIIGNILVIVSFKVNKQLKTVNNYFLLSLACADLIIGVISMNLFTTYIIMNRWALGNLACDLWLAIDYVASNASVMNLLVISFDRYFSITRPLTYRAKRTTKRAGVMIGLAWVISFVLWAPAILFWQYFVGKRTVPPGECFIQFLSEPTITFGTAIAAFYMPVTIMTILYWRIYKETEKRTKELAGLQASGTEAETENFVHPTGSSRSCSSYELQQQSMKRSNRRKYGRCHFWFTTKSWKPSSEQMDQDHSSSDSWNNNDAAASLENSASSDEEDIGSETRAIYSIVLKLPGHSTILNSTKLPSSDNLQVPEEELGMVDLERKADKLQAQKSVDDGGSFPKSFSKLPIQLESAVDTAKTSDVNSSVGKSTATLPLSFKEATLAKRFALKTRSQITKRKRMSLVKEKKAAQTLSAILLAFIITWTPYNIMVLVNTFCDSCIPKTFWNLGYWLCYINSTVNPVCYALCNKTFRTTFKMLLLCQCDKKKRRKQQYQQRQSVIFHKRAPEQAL

In general, IC50 refers to the midpoint of a concentration-inhibition curve. Read a high IC50 as weaker potency. Molecule `N=C(N)NCCCCNC(=O)/C=C/c1ccc2c(c1)[C@H](C(=O)NCCCCNC(=N)N)[C@H](c1ccc(O)cc1)O2` [active substance α] gave a half-maximal inhibitory concentration (IC50) in series [1] of 1.18 µM. Besides, in series [2], the solubility in water result was “water-soluble”. The “stimulation of stomach emptying” value in the series on stomach emptying in mice (0.1 and 0.3 mg/kg) was “significantly stimulated stomach emptying”.

In series [1], `N=C(N)NCCCCNC(=O)/C=C/c1ccc2c(c1)[C@@H](C(=O)NCCCCNC(=N)N)[C@H](c1ccc(O)cc1)O2` [active substance β] showed a concentration for half-maximal inhibition (IC50) of 4.18 µM. Besides, the solubility in water result in series [2] is recorded as “water-soluble”. In addition, the “stimulation of stomach emptying” value in the series with stomach emptying in mice (0.3 and 1.0 mg/kg) is “significantly stimulated stomach emptying”.
